From ChEMBL document CHEMBL1159271, “A reinvestigation of Maprounea triterpenes” (J Nat Prod, 1995)
Calls of active or inactive are those of the source. No cut-off for these calls is given here.

Columns and labels:
[1] = biological target: T1, Human immunodeficiency virus type 1 reverse transcriptase (Human immunodeficiency virus 1, UniProt Q72547); assay: Inhibition of HIV1 recombinant reverse transcriptase by NCI assay
[2] = biological target: T1, Human immunodeficiency virus type 1 reverse transcriptase; assay: Inhibition of HIV1 recombinant reverse transcriptase by UIC assay
Rattus norvegicus = species on record: Rattus norvegicus; assay: Displacement of [3H]phorbol dibutyrate from rat brain membrane; assay type: tissue-based

| Compound | IC50 [1] | IC50 [2] | Activity (Rattus norvegicus) |
| --- | --- | --- | --- |
| CC1(C)CC[C@]2(C(=O)O)CC=C3[C@]4(C)CC[C@H]5C(C)(C)[C@H](O)[C@@H](OC(=O)c6ccc(O)cc6)C[C@]5(C)[C@H]4CC[C@@]3(C)[C@H]2C1 | 40 µM | 15 µM |  |
| CC1(C)CC[C@]2(C(=O)O)CC=C3[C@]4(C)CC[C@H]5C(C)(C)[C@@H](OC(=O)c6ccc(O)cc6)[C@H](O)C[C@]5(C)[C@H]4CC[C@@]3(C)[C@H]2C1 | > 200 µM | 14.4 µM |  |
| CC1(C)CC[C@]2(C(=O)O)CC=C3[C@]4(C)CC[C@H]5C(C)(C)[C@@H](OC(=O)c6ccc(O)cc6)CC[C@]5(C)[C@H]4CC[C@@]3(C)[C@H]2C1 | 200 µM | 10.6 µM |  |
| CC1(C)CC[C@]2(C(=O)O)CC=C3[C@]4(C)CC[C@H]5C(C)(C)[C@@H](OC(=O)c6ccc(O)cc6)[C@H](OC(=O)c6ccc(O)cc6)C[C@]5(C)[C@H]4CC[C@@]3(C)[C@H]2C1 | 60 µM | 7.9 µM |  |
| CC1(C)CC[C@]2(C(=O)O)CC=C3[C@]4(C)CC[C@H]5C(C)(C)[C@@H](O)C[C@@H](O)[C@]5(C)[C@H]4CC[C@@]3(C)[C@H]2C1 |  | 4.9 µM |  |
| CC1(C)CC[C@]2(C(=O)O)CC=C3[C@]4(C)CC[C@H]5C(C)(C)C[C@H](O)[C@@H](O)[C@]5(C)[C@H]4CC[C@@]3(C)[C@H]2C1 | > 100 µM | 3.4 µM |  |
| CC1(C)CC[C@]2(C(=O)O)CC=C3[C@]4(C)CC[C@H]5C(C)(C)[C@@H](OC(=O)/C=C/c6ccc(O)cc6)CC[C@]5(C)[C@H]4CC[C@@]3(C)[C@H]2C1 | 60 µM | 11.5 µM |  |
| CC1(C)CC[C@]2(C(=O)O)CC=C3[C@]4(C)CC[C@H]5C(C)(C)[C@@H](OC(=O)c6ccc(O)cc6)C[C@@H](O)[C@]5(C)[C@H]4CC[C@@]3(C)[C@H]2C1 | > 100 µM | 3.7 µM | Active |
| CC1(C)CC[C@]2(C(=O)O)CC=C3[C@]4(C)CC[C@H]5C(C)(C)[C@@H](O)[C@H](OC(=O)c6ccc(O)cc6)C[C@]5(C)[C@H]4CC[C@@]3(C)[C@H]2C1 | > 200 µM | 52 µM |  |
